The record followed here is PubChem BioAssay (NCI).

Values joined by “and” are separate entries in the source; they are usually repeats but may differ in a detail not shown here. Equal values may be shown once.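 Grown in 96-well plates, cells were treated for 48 hours with each compound at five concentrations. Insufficient inhibition: endpoint recorded as highest concentration tested. GI50: concentration for 50% inhibition of growth. TGI is the concentration that stops growth completely.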

Among the test systems are UACC-62 melanoma; MDA-MB-435; MDA-MB-231 breast; SK-OV-3 ovarian; NCI/ADR-RES ovarian; DU-145 prostate; U251 CNS; SN12C renal; MALME-3M melanoma; K-562 leukemia.
What all share (assay): growth of human tumour cells (NCI), 48 h

`Cc1nn(C(=O)c2ccc(Cl)cc2)c2c1C(/C=C/c1ccccc1)SC(N)=N2` (stereo not given): the TGI in the experiment with UACC-62 melanoma, with MDA-MB-435, in the experiment with MDA-MB-231 breast, in the experiment on SK-OV-3 ovarian, in the experiment on NCI/ADR-RES ovarian and in the experiment with DU-145 prostate was greater than 10 µM throughout. The TGI in the experiment with U251 CNS, with SN12C renal, in the experiment with MALME-3M melanoma and in the experiment with K-562 leukemia was greater than 10 µM throughout.
In the case of `CC(C)(S)C(N)C(=O)O` (stereo not given), the GI50 in the experiment on UACC-62 melanoma is 4760 µM; in the experiment with MDA-MB-435, 1890 µM; in the experiment with MDA-MB-231 breast, 2660 µM; with SK-OV-3 ovarian it was 2600 µM; in the experiment on NCI/ADR-RES ovarian, 3650 µM; in the experiment on DU-145 prostate it was 1600 µM. Also, the GI50 in the experiment with U251 CNS was 1780 µM; in the experiment with SN12C renal it was greater than 5000 µM; in the experiment on MALME-3M melanoma it was 1130 µM; with K-562 leukemia it was 2390 µM. The TGI with UACC-62 melanoma, in the experiment with MDA-MB-435, in the experiment with MDA-MB-231 breast, with SK-OV-3 ovarian, in the experiment on NCI/ADR-RES ovarian and in the experiment on DU-145 prostate was greater than 5000 µM throughout. Further, the TGI in the experiment on U251 CNS is greater than 5000 µM; with SN12C renal, greater than 5000 µM; with MALME-3M melanoma, 3400 µM and > 100 µM; with K-562 leukemia it was greater than 5000 µM.
Turning to `NC(=O)c1cc(S(=O)(=O)Nc2nnc(-c3ccccc3)c(-c3ccccc3)n2)c(SCc2ccccc2)cc1Cl`, the GI50 with UACC-62 melanoma was 71.1 µM; in the experiment on MDA-MB-435, greater than 53.4 µM; in the experiment on MDA-MB-231 breast, greater than 85.4 µM; in the experiment on SK-OV-3 ovarian, greater than 74.7 µM; with NCI/ADR-RES ovarian, greater than 100 µM; in the experiment on DU-145 prostate, greater than 100 µM. Further, the GI50 is greater than 55.6 µM in the experiment with U251 CNS, greater than 50.8 µM with SN12C renal, greater than 100 µM with MALME-3M melanoma and 54.6 µM in the experiment on K-562 leukemia. For the same compound, the TGI in the experiment with UACC-62 melanoma, with MDA-MB-435, in the experiment with MDA-MB-231 breast, in the experiment with SK-OV-3 ovarian, in the experiment on NCI/ADR-RES ovarian and with DU-145 prostate was greater than 100 µM in each case. The TGI in the experiment with U251 CNS is greater than 100 µM; in the experiment on SN12C renal, greater than 82.6 µM; with MALME-3M melanoma it was greater than 100 µM; with K-562 leukemia, greater than 100 µM.
Turning to `O=C1NC(=O)/C(=C\c2ccccc2)C2=C1CCCC2`, the GI50 in the experiment on UACC-62 melanoma was 3.13 µM; in the experiment on MDA-MB-435 it was 1.82 µM; in the experiment on MDA-MB-231 breast, 13.2 µM; in the experiment with SK-OV-3 ovarian, 14.6 µM; in the experiment with NCI/ADR-RES ovarian, 7.54 µM; with DU-145 prostate, 10.8 µM. Besides, the GI50 is 4.82 µM with U251 CNS, 3.03 µM with SN12C renal, 2.53 µM in the experiment with MALME-3M melanoma and 5.39 µM in the experiment on K-562 leukemia. Further, the TGI is 9.13 µM with UACC-62 melanoma; 3.49 µM in the experiment on MDA-MB-435; 26.4 µM in the experiment with MDA-MB-231 breast; 27.8 µM in the experiment with SK-OV-3 ovarian; 19.2 µM in the experiment on NCI/ADR-RES ovarian; 22.9 µM with DU-145 prostate. The TGI is 16.2 µM with U251 CNS, 11 µM in the experiment with SN12C renal, 9.11 µM in the experiment with MALME-3M melanoma and greater than 40.3 µM in the experiment with K-562 leukemia.
For `CN(CCO)c1ccc(N2Cc3ccccc3OC3=C2C(=O)c2c(O)ccc(O)c2C3=O)cn1`, the GI50 was 0.21 µM with UACC-62 melanoma; 0.215 µM with MDA-MB-435; 0.221 µM in the experiment on MDA-MB-231 breast; 2.24 µM in the experiment with SK-OV-3 ovarian; 0.31 µM in the experiment on NCI/ADR-RES ovarian; 0.174 µM in the experiment on DU-145 prostate. The GI50 was 0.284 µM in the experiment with U251 CNS, 0.165 µM in the experiment with SN12C renal, 0.0833 µM with MALME-3M melanoma and 0.0759 µM with K-562 leukemia. Moreover, the TGI turned out to be 0.498 µM in the experiment with UACC-62 melanoma; 0.478 µM in the experiment on MDA-MB-435; 0.679 µM with MDA-MB-231 breast; 8.65 µM in the experiment on SK-OV-3 ovarian; 1.34 µM in the experiment with NCI/ADR-RES ovarian; 0.323 µM in the experiment on DU-145 prostate. Besides, the TGI with U251 CNS is 0.82 µM; with SN12C renal it was 0.355 µM; in the experiment with MALME-3M melanoma, 0.245 µM; in the experiment with K-562 leukemia it was greater than 100 µM.
For the compound `NCCSc1nc(-c2ccccc2)c(-c2ccccc2)o1`, the TGI in the experiment with UACC-62 melanoma, with MDA-MB-435, with MDA-MB-231 breast, in the experiment on SK-OV-3 ovarian, in the experiment on NCI/ADR-RES ovarian and in the experiment with DU-145 prostate was greater than 100 µM each time. For the same compound, the TGI in the experiment with U251 CNS, in the experiment on SN12C renal, with MALME-3M melanoma and in the experiment with K-562 leukemia was greater than 100 µM each time.
`COc1cc(C(=O)N2CCN(c3ncccn3)CC2)c(N)cc1OCc1ccccc1`: the GI50 in the experiment on UACC-62 melanoma was greater than 100 µM; in the experiment on MDA-MB-435, greater than 100 µM; with MDA-MB-231 breast, greater than 100 µM; in the experiment with SK-OV-3 ovarian, greater than 100 µM; in the experiment on NCI/ADR-RES ovarian, greater than 100 µM; in the experiment on DU-145 prostate, 37.2 µM. Besides, the GI50 is greater than 100 µM in the experiment with U251 CNS, 63.9 µM with SN12C renal, greater than 100 µM in the experiment on MALME-3M melanoma and greater than 100 µM with K-562 leukemia. Moreover, the TGI with UACC-62 melanoma, in the experiment with MDA-MB-435, with MDA-MB-231 breast, in the experiment with SK-OV-3 ovarian, in the experiment on NCI/ADR-RES ovarian and in the experiment on DU-145 prostate was greater than 100 µM in each case. Also, the TGI in the experiment on U251 CNS, in the experiment with SN12C renal, with MALME-3M melanoma and with K-562 leukemia was greater than 100 µM throughout.
With `c1ccc2c(c1)c1c(c3ccccc32)CN2CCCC2C1` (stereo not given), the TGI in the experiment on UACC-62 melanoma was 12.8 µM; in the experiment on MDA-MB-435 it was 31.6 µM; in the experiment with MDA-MB-231 breast, 32.3 µM; in the experiment on SK-OV-3 ovarian, greater than 100 µM; in the experiment with NCI/ADR-RES ovarian, greater than 41.5 µM; in the experiment with DU-145 prostate it was greater than 100 µM. For the same compound, the TGI in the experiment with U251 CNS is 23.1 µM; with SN12C renal it was 14.9 µM; with MALME-3M melanoma, 7.14 µM; in the experiment on K-562 leukemia, greater than 100 µM.
Take `O=CN1CCN(CC(O)CN2CCCCC2)CC1` (stereo not given): the TGI in the experiment with UACC-62 melanoma, with MDA-MB-435, in the experiment on MDA-MB-231 breast, in the experiment on SK-OV-3 ovarian, with NCI/ADR-RES ovarian and in the experiment with DU-145 prostate was greater than 100 µM throughout. The TGI with U251 CNS, in the experiment with SN12C renal, in the experiment on MALME-3M melanoma and in the experiment on K-562 leukemia was greater than 100 µM in each case.
As for `Cc1cc(C)c(/C=C2\C(=O)Nc3ccc(NC(=O)CCCCCCC(=O)NO)cc32)[nH]1`, the GI50 is 0.407 µM with UACC-62 melanoma; 0.44 µM in the experiment on MDA-MB-435; 1.37 µM in the experiment on MDA-MB-231 breast; 0.664 µM with SK-OV-3 ovarian; greater than 100 µM in the experiment with NCI/ADR-RES ovarian; 1.49 µM with DU-145 prostate. Further, the GI50 with U251 CNS is 0.529 µM; in the experiment on SN12C renal, greater than 20.4 µM; in the experiment on MALME-3M melanoma, 0.237 µM; in the experiment with K-562 leukemia it was 0.373 µM. Also, the TGI in the experiment on UACC-62 melanoma is 2.75 µM; with MDA-MB-435, greater than 100 µM; with MDA-MB-231 breast it was 60 µM; in the experiment on SK-OV-3 ovarian, 4.56 µM; in the experiment with NCI/ADR-RES ovarian, greater than 100 µM; in the experiment with DU-145 prostate, greater than 100 µM. The TGI is 10.4 µM in the experiment with U251 CNS, greater than 100 µM in the experiment with SN12C renal, greater than 27.4 µM in the experiment with MALME-3M melanoma and greater than 100 µM with K-562 leukemia.
Consider `c1ccc2nc3c(nc2c1)sc1ccccc13`, for which the TGI was 79.3 µM in the experiment with UACC-62 melanoma; greater than 100 µM in the experiment on MDA-MB-435; greater than 100 µM in the experiment with MDA-MB-231 breast; 29.5 µM in the experiment with SK-OV-3 ovarian; greater than 100 µM with NCI/ADR-RES ovarian; greater than 100 µM in the experiment on DU-145 prostate. For the same compound, the TGI in the experiment on U251 CNS was 34.1 µM; in the experiment with SN12C renal it was greater than 100 µM; with MALME-3M melanoma it was greater than 100 µM; in the experiment on K-562 leukemia, greater than 100 µM.
Turning to `C1=C\COCc2cc(ccc2OCCN2CCCC2)Nc2nccc(n2)-c2cccc(c2)COC/1`, the GI50 in the experiment with UACC-62 melanoma is 2.02 µM; in the experiment on MDA-MB-435 it was 1.53 µM; in the experiment with MDA-MB-231 breast it was 1.92 µM; in the experiment with SK-OV-3 ovarian, 3.62 µM; in the experiment on NCI/ADR-RES ovarian it was 2.77 µM; in the experiment with DU-145 prostate, 1.55 µM. In addition, the GI50 in the experiment with U251 CNS is 2.49 µM; in the experiment on SN12C renal, 1.19 µM; in the experiment with MALME-3M melanoma it was 2.13 µM; in the experiment with K-562 leukemia, 0.933 µM. The TGI in the experiment on UACC-62 melanoma turned out to be 5.2 µM; in the experiment with MDA-MB-435 it was 4.65 µM; in the experiment on MDA-MB-231 breast, 5.61 µM; in the experiment on SK-OV-3 ovarian it was 6.19 µM; in the experiment on NCI/ADR-RES ovarian it was 7.35 µM; with DU-145 prostate, 5.53 µM. For the same compound, the TGI was determined as 5.21 µM in the experiment with U251 CNS, 4.92 µM in the experiment on SN12C renal, 5.32 µM in the experiment on MALME-3M melanoma and 3.65 µM in the experiment with K-562 leukemia.
On to `N=C(N)c1ccc2nc(-c3cc(CC(=O)N[C@@H](CC(=O)O)C(=O)O)cc(-c4cc(S(N)(=O)=O)ccc4O)c3O)[nH]c2c1`, for which the GI50 with UACC-62 melanoma, with MDA-MB-435, in the experiment with MDA-MB-231 breast, with SK-OV-3 ovarian, with NCI/ADR-RES ovarian and in the experiment with DU-145 prostate was greater than 100 µM throughout. Moreover, the GI50 in the experiment with U251 CNS, in the experiment with SN12C renal, with MALME-3M melanoma and in the experiment on K-562 leukemia was greater than 100 µM throughout. The TGI in the experiment on UACC-62 melanoma, with MDA-MB-435, with MDA-MB-231 breast, in the experiment with SK-OV-3 ovarian, in the experiment on NCI/ADR-RES ovarian and with DU-145 prostate was greater than 100 µM each time. The TGI in the experiment with U251 CNS, with SN12C renal, in the experiment with MALME-3M melanoma and with K-562 leukemia was greater than 100 µM in each case.
